Reference: ChEMBL document CHEMBL4190300, “Discovery and Synthesis of Caracolamide A, an Ion Channel Modulating Dichlorovinylidene Containing Phenethylamide from a Panamanian Marine Cyanobacterium cf. Symploca Species” (J Nat Prod, 2017)
Calls of active or inactive are those of the source. The rule behind the calls is not given here.

Columns and labels:
Mus musculus = organism: Mus musculus; assay: Inhibition of spontaneous calcium oscillations in Swiss Webster mouse neocortical neurons at 0.01 nM to 1000 nM measured for 2 mins by Fluo-3 AM dye based FLIPR assay
NCI-H460 = assay: Cytotoxicity against human NCI-H460 cells after 48 hrs by MTT assay; format: functional, cell-based; conditions: NCI-H460, 48 h

**Q.** NCCc1ccccc1 was tested. Which inhibition (Mus musculus) did it give?
**A.** The inhibition was “Active”.

**Q.** For O=C(CCCCCC=C(Cl)Cl)NCCc1ccccc1, which IC50 (NCI-H460) is on record?
**A.** The IC50 was greater than 10 µM.

**Q.** And the inhibition (Mus musculus)?
**A.** The inhibition was “Active”.

**Q.** For C=CC[C@@H](C[C@@H](C[C@@H](C[C@@H](C[C@@H](C[C@@H](C[C@@H](C[C@@H](C[C@@H](C[C@@H](CCCCC)OC)OC)OC)OC)OC)OC)OC)OC)OC)OC, which IC50 (NCI-H460) is on record?
**A.** Its IC50 is greater than 10 µM.
